Values of other authors in patent US20230330068A1, “GEL COMPOSITION OF LULICONAZOLE FOR TREATMENT OF VAGINAL FUNGAL INFECTIONS AND ITS MANUFACTURING PROCESS” (priority 2023, published 2023).

Test system: Candida
Conditions: anticandidal activity; recent findings from the literature

N#C/C(=C1/SC[C@@H](c2ccc(Cl)cc2Cl)S1)n1ccnc1 [Luliconazole]
minimum inhibitory concentration (MIC) range: 31 to 130 µg/mL
